Measurements taken from patent US4005213A, “2,5-Substituted-1,3,4-thiadiazoles as fungicides” (Schering Aktiengesellschaft, priority 1968, dated 1977).

What follows are compounds tested on Pythium ultimum (assay: Limit concentration of soil-fungicidal effectiveness, Pythium ultimum infested soil, peas (Example 1)). Details: 20 to 23 days, 22°-25° C., germination at least 90% vs steamed soil.
Assay type: in vivo
Description: Limit concentrations of the soil-fungicidal effectiveness at homogeneous mixture of the products with the infested soil. Basic condition in the evaluation are a sound root formation without fungus necroses and germination of the seed of at least 90% compared with the result obtained in steamed soil. Per concentration there were seeded 25 grains of peas of the variety "Miracle of Kelvedon" (marrow pea) without a waiting period. the cultivation time in the tests was 20 to 23 days at a temperature of 22°-25° C. Four commercial products were included in the test series.
Pythium ultimum: Steamed compost soil was inoculated with mycelium of Pythium ultimum
With `CC(C)CC(Br)c1nnc(S(C)(=O)=O)s1` (stereo not shown) [Compound 53, 2-(1-bromisopentyl)-5-methylsulfonyl-1,3,4-thiadiazole] the “Limit concentration of fungicidal effectiveness, Pythium ultimum” value was “no effect”. `CCCCC(Br)c1nnc(S(C)(=O)=O)s1` (stereo not shown) [Compound 52, 2-(1-bromopentyl)-5-methylsulfonyl-1,3,4-thiadiazole] was tested, and the “Limit concentration of fungicidal effectiveness, Pythium ultimum” value was “no effect”.

Same assay, conditions: Globisporangium ultimum, 20 to 23 days, 22°-25° C., germination at least 90% vs steamed soil
Work on `CC(C)S(=O)(=O)c1nnc(C(F)(F)F)s1` [Compound 41, 2-trifluoromethyl-5-isopropylsulfonyl-1,3,4-thiadiazole] yielded a minimal effective concentration of 10 µg/mL. In the case of `CC(C)[S+]([O-])c1nnc(C(Cl)Cl)s1` (stereo not shown) [Compound 6, 2-dichloromethyl-5-isopropylsulfinyl-1,3,4-thiadiazole], the minimal effective concentration is reported as over 200 µg/mL. Compound `CC(Br)c1nnc(S(C)(=O)=O)s1` (stereo not shown) [Compound 50, 2-(1-bromethyl)-5-methylsulfonyl-1,3,4-thiadiazole] has a minimal effective concentration of 40 µg/mL. Compound `CC(C)C(Br)c1nnc(S(C)(=O)=O)s1` (stereo not shown) [Compound 51, 2-(1-bromisobutyl)-5-methylsulfonyl-1,3,4-thiadiazole] has a minimal effective concentration of over 100 µg/mL. For `CS(=O)(=O)c1nnc(C(F)(F)C(F)(F)F)s1` [Compound 45, 2-pentafluoroethyl-5-methylsulfonyl-1,3,4-thiadiazole], the minimal effective concentration was 100 µg/mL. `CCS(=O)(=O)c1nnc(CBr)s1` [Compound 31, 2-bromomethyl-5-ethylsulfonyl-1,3,4-thiadiazole] gave a minimal effective concentration of 50 µg/mL. `C[S+]([O-])c1nnc(CCl)s1` (stereo not shown) [Compound 2, 2-chloromethyl-5-methylsulfinyl-1,3,4-thiadiazole] showed a minimal effective concentration of 30 µg/mL. Work on `CCCCCCS(=O)(=O)c1nnc(C(F)(F)F)s1` [Compound 43, 2-trifluoromethyl-5-hexylsulfonyl-1,3,4-thiadiazole] yielded a minimal effective concentration of over 100 µg/mL. With `CC(C)CS(=O)(=O)c1nnc(C(F)(F)F)s1` [Compound 42, 2-trifluoromethyl-5-isobutylsulfonyl-1,3,4-thiadiazole] the minimal effective concentration was 20 µg/mL. With `CC(C)S(=O)(=O)c1nnc(CCl)s1` [Compound 16, 2-chloromethyl-5-isopropylsulfonyl-1,3,4-thiadiazole] the minimal effective concentration was 150 µg/mL. Work on `CCC(Cl)c1nnc(S(C)(=O)=O)s1` (stereo not shown) [Compound 49, 2-(1-chloropropyl)-5-methylsulfonyl-1,3,4-thiadiazole] yielded a minimal effective concentration of 100 µg/mL. Compound `CCC(Cl)c1nnc([S+](C)[O-])s1` (stereo not shown) [Compound 48, 2-(1-chloropropyl)-5-methylsulfinyl-1,3,4-thiadiazole] has a minimal effective concentration of over 100 µg/mL. For `CC(C)[S+]([O-])c1nnc(C(Cl)(Cl)Cl)s1` (stereo not shown) [Compound 11, 2-trichloromethyl-5-isopropylsulfinyl-1,3,4-thiadiazole], the minimal effective concentration was over 200 µg/mL. In the case of `CCCCCC[S+]([O-])c1nnc(C(F)(F)F)s1` (stereo not shown) [Compound 39, 2-trifluoromethyl-5-hexylsulfinyl-1,3,4-thiadiazole], the minimal effective concentration is reported as 100 µg/mL. For `CS(=O)(=O)c1nnc(CF)s1` [Compound 34, 2-fluoromethyl-5-methylsulfonyl-1,3,4-thiadiazole], the minimal effective concentration was 50 µg/mL. Work on `CCCCCCCS(=O)(=O)c1nnc(C(F)(F)F)s1` [Compound 44, 2-trifluoromethyl-5-heptylsulfonyl-1,3,4-thiadiazole] yielded a minimal effective concentration of over 100 µg/mL. In the case of `CC(C)S(=O)(=O)c1nnc(C(Cl)Cl)s1` [Compound 20, 2-dochloromethyl-5-isopropylsulfonyl-1,3,4-thiadiazole], the minimal effective concentration is reported as 200 µg/mL. Compound `C[S+]([O-])c1nnc(CF)s1` (stereo not shown) [Compound 33, 2-fluoromethyl-5-methylsulfinyl-1,3,4-thiadiazole] has a minimal effective concentration of 50 µg/mL. `CCCCC[S+]([O-])c1nnc(C(F)(F)F)s1` (stereo not shown) [Compound 38, 2-trifluoromethyl-5-pentylsulfinyl-1,3,4-thiadiazole] showed a minimal effective concentration of 100 µg/mL. `CC(Cl)(Cl)c1nnc(S(C)(=O)=O)s1` [Compound 47, 2-(1,1-dichloroethyl)-5-methylsulfonyl-1,3,4-thiadiazole] was tested, and the minimal effective concentration was 80 µg/mL.
